Laboratory results as given in patent publication US10787442B2, “Modulators of indoleamine 2,3-dioxygenase” (GLAXOSMITHKLINE INTELLECTUAL PROPERTY DEVELOPMENT LIMITED, priority 2016, dated 2020).

Test system: human peripheral blood mononuclear cells (PBMC)
Assay: PBMC cytotoxicity assay (CellTiter-Glo)
Type: cell-based
Conditions: cytotoxicity in stimulated PBMC, recorded as pCC50
Protocol: Compounds of the present invention were tested via high-throughput cellular assays utilizing detection of kynurenine via mass spectrometry and cytotoxicity as end-points. […] Compounds with IDO1 inhibitory properties decreased the amount of kynurenine produced by the cells via the tryptophan catabolic pathway. Cellular toxicity due to the effect of compound treatment was measured using CellTiter-Glo® reagent (CTG) (Promega Corporation, Madison, Wis.), which is based on luminescent detection of ATP, an indicator of metabolically active cells.
In preparation for the assays, test compounds were serially diluted 3-fold in DMSO from a typical top concentration of 1 mM or 5 mM and plated at 0.5 μL in 384-well, polystyrene, clear bottom, tissue culture treated plates with lids (Greiner Bio-One, Kremsmünster, Austria) to generate 11-point dose response curves. Low control wells (0% kynurenine or 100% cytotoxicity) contained either 0.5 μL of DMSO in the presence of unstimulated (−IFN-γ/−LPS) PBMCs for the mass spectrometry assay or 0.5 μL of DMSO in the absence of cells for the cytotoxicity assay, and high control wells (100% kynurenine or 0% cytotoxicity) contained 0.5 μL of DMSO in the presence of stimulated (+IFN-γ/+LPS) PBMCs for both the mass spectrometry and cytotoxicity assays.
Frozen stocks of PBMCs were washed and recovered in RPMI 1640 medium (Thermo Fisher Scientific, Inc., Waltham, Mass.) supplemented with 10% v/v heat-inactivated fetal bovine serum (FBS) (Thermo Fisher Scientific, Inc., Waltham, Mass.), and 1× penicillin-streptomycin antibiotic solution (Thermo Fisher Scientific, Inc., Waltham, Mass.). The cells were diluted to 1,000,000 cells/mL in the supplemented RPMI 1640 medium. 50 μL of either the cell suspension, for the mass spectrometry assay, or medium alone, for the cytotoxicity assay, were added to the low control wells, on the previously prepared 384-well compound plates, resulting in 50,000 cells/well or 0 cells/well respectively. IFN-γ and LPS were added to the remaining cell suspension at final concentrations of 100 ng/ml and 50 ng/ml respectively, and 50 μL of the stimulated cells were added to all remaining wells on the 384-well compound plates. The plates, with lids, were then placed in a 37° C., 5% CO2 humidified incubator for 2 days.
Following incubation, the 384-well plates were removed from the incubator and allowed to equilibrate to room temperature for 30 minutes. For the cytotoxicity assay, CellTiter-Glo® was prepared according to the manufacturer's instructions, and 40 μL were added to each plate well. After a twenty minute incubation at room temperature, luminescence was read on an EnVision® Multilabel Reader (PerkinElmer Inc., Waltham, Mass.). For the mass spectrometry assay, 10 μL of supernatant from each well of the compound-treated plates were added to 40 μL of acetonitrile, containing 10 μM of an internal standard for normalization, in 384-well, polypropylene, V-bottom plates (Greiner Bio-One, Kremsmünster, Austria) to extract the organic analytes. Following centrifugation at 2000 rpm for 10 minutes, 10 μL from each well of the acetonitrile extraction plates were added to 90 μL of sterile, distilled H2O in 384-well, polypropylene, V-bottom plates for analysis of kynurenine and the internal standard on the RapidFire 300 (Agilent Technologies, Santa Clara, Calif.) and 4000 QTRAP MS (SCIEX, Framingham, Mass.). MS data were integrated using Agilent Technologies' RapidFire Integrator software, and data were normalized for analysis as a ratio of kynurenine to the internal standard.

SMILES | PBMC_TOX PXC50
CC(C)CN(c1ncc([C@H](C)CC(=O)O)cc1Nc1nc(C(C)C)ns1)C1CCOCC1 [Example 8] | <5.0
C[C@H](CC(=O)O)c1cnc(N(CC2CC2)C2CCOCC2)c(Nc2ccc(Cl)cn2)c1 [Example 9, (R)-3-(5-((5-chloropyridin-2-yl)amino)-6-((cyclopropylmethyl)(tetrahydro-2H-pyran-4-yl)amino)pyridin-3-yl)butanoic acid] | <5.0
CC(C)CN(c1ncc([C@H](C)CC(=O)O)cc1Nc1n[nH]c(C(F)(F)F)n1)C1CCCCC1 [Example 10, (R)-3-(6-(cyclohexyl(isobutyl)amino)-5-((5-(trifluoromethyl)-1H-1,2,4-triazol-3-yl)amino)pyridin-3-yl)butanoic acid] | <5.0
CC(C)CN(c1ncc([C@H](C)CC(=O)O)cc1Nc1nc(C(F)(F)F)ns1)C1CCCCC1 [Example 11, (R)-3-(6-(cyclohexyl(isobutyl)amino)-5-((3-(trifluoromethyl)-1,2,4-thiadiazol-5-yl)amino)pyridin-3-yl)butanoic acid] | <5.0
CC(C)CN(c1ncc([C@H](C)CC(=O)O)cc1Nc1nc(Cl)ns1)C1CCCCC1 [Example 12, (R)-3-(5-((3-chloro-1,2,4-thiadiazol-5-yl)amino)-6-(cyclohexyl(isobutyl)amino)pyridin-3-yl)butanoic acid] | <5.0
CC(C)CN(c1ncc([C@H](C)CC(=O)O)cc1Nc1ccc(Cl)cn1)C1CCCCC1 [Example 13, (R)-3-(5-((5-chloropyridin-2-yl)amino)-6-(cyclohexyl(isobutyl)amino)pyridin-3-yl)butanoic acid] | <5.0
CC(C)CN(c1ncc([C@H](C)CC(=O)O)cc1Nc1nc(C(C)C)ns1)C1CCCCC1 [Example 14, (R)-3-(6-(cyclohexyl(isobutyl)amino)-5-((3-isopropyl-1,2,4-thiadiazol-5-yl)amino)pyridin-3-yl)butanoic acid] | <5.0
COCc1nsc(Nc2cc([C@H](C)CC(=O)O)cnc2N(CC(C)C)C2CCCCC2)n1 [Example 15, (R)-3-(6-(cyclohexyl(isobutyl)amino)-5-((3-(methoxymethyl)-1,2,4-thiadiazol-5-yl)amino)pyridin-3-yl)butanoic acid] | <5.5
Cc1nsc(Nc2cc([C@H](C)CC(=O)O)cnc2N(CC(C)C)C2CCCCC2)n1 [Example 16, (R)-3-(6-(cyclohexyl(isobutyl)amino)-5-((3-methyl-1,2,4-thiadiazol-5-yl)amino)pyridin-3-yl)butanoic acid] | <5.2
CC(C)CN(c1ncc([C@H](C)CC(=O)O)cc1Nc1ccc(Cl)nc1)C1CCC(F)(F)CC1 [Example 17, (R)-3-(5-((6-chloropyridin-3-yl)amino)-6-((4,4-difluorocyclohexyl)(isobutyl)amino)pyridin-3-yl)butanoic acid] | <5.0
CC(C)CN(c1ncc([C@H](C)CC(=O)O)cc1Nc1ccc(Cl)cn1)C1CCC(F)(F)CC1 [Example 18, (R)-3-(5-((5-chloropyridin-2-yl)amino)-6-((4,4-difluorocyclohexyl) (isobutyl)amino)pyridin-3-yl)butanoic acid] | <5.0
CC(C)CN(c1ncc([C@H](C)CC(=O)O)cc1Nc1ccc(Cl)nc1)C1CC(F)(F)C1 [Example 19, (R)-3-(5-((6-chloropyridin-3-yl)amino)-6-((3,3-difluorocyclobutyl)(isobutyl)amino)pyridin-3-yl) butanoic acid] | <5.0
CO[C@H]1CC[C@@H](N(CC(C)C)c2ncc([C@H](C)CC(=O)O)cc2Nc2nc(Cl)ns2)CC1 [Example 21, (R)-3-(5-((3-chloro-1,2,4-thiadiazol-5-yl)amino)-6-(isobutyl((1s,4S)-4-methoxycyclohexyl)amino)pyridin-3-yl)butanoic acid] | <5.0
CO[C@H]1CC[C@@H](N(CC(C)C)c2ncc([C@H](C)CC(=O)O)cc2Nc2nc(C(F)(F)F)ns2)CC1 [Example 22, (R)-3-(6-(isobutyl((1s,4S)-4-methoxycyclohexyl)amino)-5-((3-(trifluoromethyl)-1,2,4-thiadiazol-5-yl)amino)pyridin-3-yl) butanoic acid] | <5.4
CO[C@H]1CC[C@@H](N(CC(C)C)c2ncc([C@H](C)CC(=O)O)cc2Nc2ccc(C#N)nc2)CC1 [Example 23, (R)-3-(5-((6-cyanopyridin-3-yl)amino)-6-(isobutyl((1s,4S)-4-methoxycyclohexyl)amino)pyridin-3-yl)butanoic acid] | <5.0
CO[C@H]1CC[C@@H](N(CC(C)C)c2ncc([C@H](C)CC(=O)O)cc2Nc2ccc(Cl)cn2)CC1 [Example 24, (R)-3-(5-((5-chloropyridin-2-yl)amino)-6-(isobutyl((1s,4S)-4-methoxycyclohexyl)amino)pyridin-3-yl)butanoic acid] | <5.0
CO[C@H]1CC[C@@H](N(CC(C)C)c2ncc([C@H](C)CC(=O)O)cc2Nc2ccc(C#N)cn2)CC1 [Example 25, (R)-3-(5-((5-cyanopyridin-2-yl)amino)-6-(isobutyl((1s,4S)-4-methoxycyclohexyl)amino)pyridin-3-yl)butanoic acid] | <5.0
CO[C@H]1CC[C@H](N(CC(C)C)c2ncc([C@H](C)CC(=O)O)cc2Nc2nc(C(F)(F)F)ns2)CC1 [Example 26, (R)-3-(6-(isobutyl((1r,4R)-4-methoxycyclohexyl)amino)-5-((3-(trifluoromethyl)-1,2,4-thiadiazol-5-yl)amino)pyridin-3-yl)butanoic acid] | <5.0
CO[C@H]1CC[C@H](N(CC(C)C)c2ncc([C@H](C)CC(=O)O)cc2Nc2ccc(Cl)cn2)CC1 [Example 27, (R)-3-(5-((5-chloropyridin-2-yl)amino)-6-(isobutyl((1r,4R)-4-methoxycyclohexyl)amino)pyridin-3-yl)butanoic acid] | <5.0
CC(C)CN(c1ncc([C@H](C)CC(=O)O)cc1Nc1nc(C(F)(F)F)ns1)[C@H]1CC[C@H](O)CC1 [Example 28, (R)-3-(6-(((1r,4R)-4-hydroxycyclohexyl)(isobutyl)amino)-5-((3-(trifluoromethyl)-1,2,4-thiadiazol-5-yl)amino)pyridin-3-yl)butanoic acid] | <5.0
CC(C)CN(c1ncc(C(C)CC(=O)O)cc1Nc1nc(C2CC2)ns1)C1CCOCC1 (centres unmarked) [Example 37, 3-{5-[(3-cyclopropyl-1,2,4-thiadiazol-5-yl)amino]-6-[(2-methylpropyl)(oxan-4-yl)amino]pyridin-3-yl}butanoic acid] | <5.0
CC(C)CN(c1ncc([C@H](C)CC(=O)O)cc1Nc1nnc(C2CC2)s1)C1CCOCC1 [Example 38, (3R)-3-{5-[(5-cyclopropyl-1,3,4-thiadiazol-2-yl)amino]-6-[(2-methylpropyl)(oxan-4-yl)amino]pyridin-3-yl}butanoic acid] | <5.0
CC(C)CN(c1ncc([C@H](C)CC(=O)O)cc1Nc1nc(Cl)ns1)C1CCOCC1 [Example 39, (3R)-3-{5-[(3-chloro-1,2,4-thiadiazol-5-yl)amino]-6-[(2-methylpropyl)(oxan-4-yl)amino]pyridin-3-yl}butanoic acid] | <5.0
